Results published in ChEMBL document CHEMBL3885881, “DrugMatrix”.

Organism: Rattus norvegicus
Experiment: DrugMatrix - Regimen: Daily Repeat
Format: toxicity, organism-based, Sprague-Dawley
Set-up: regimen Daily Repeat, gender Male, age 6-8 weeks
Conditions: in vivo, po, route oral GAVAGE, vehicle .5 % CMC; for ABSOLUTE BASOPHIL / ABSOLUTE EOSINOPHIL / ABSOLUTE LYMPHOCYTE / ABSOLUTE MONOCYTE / ABSOLUTE SEGMENTED NEUTROPHIL / BASOPHIL / EOSINOPHIL / ERYTHROCYTE COUNT / HEMATOCRIT / HEMOGLOBIN / LEUKOCYTE COUNT / LYMPHOCYTE / MEAN CORPUSCULAR HEMOGLOBIN / MEAN CORPUSCULAR HEMOGLOBIN CONCENTRATION / MEAN CORPUSCULAR VOLUME / MONOCYTE / NEUTROPHIL / NUCLEATED RED BLOOD CELLS / PLATELET COUNT: tissue Blood; for ALANINE AMINOTRANSFERASE / ALBUMIN / ALKALINE PHOSPHATASE / ASPARTATE AMINOTRANSFERASE / BLOOD UREA NITROGEN / CARBON DIOXIDE / CHLORIDE / CHOLESTEROL / CREATINE PHOSPHOKINASE / CREATININE / GLUCOSE / LACTATE DEHYDROGENASE / LIPASE / PHOSPHORUS / POTASSIUM / SODIUM / TOTAL BILIRUBIN / TOTAL PROTEIN / URIC ACID: tissue Plasma
[1] = 0 mg/kg, 72 h, dose level Control, time 3 day
[2] = 0 mg/kg, 120 h, dose level Control, time 5 day
[3] = 200 mg/kg, 72 h, dose level Low, time 3 day

With `CCC1=C(C)CN(C(=O)NCCc2ccc(S(=O)(=O)NC(=O)N[C@H]3CC[C@H](C)CC3)cc2)C1=O` [GLIMEPIRIDE] the “ABSOLUTE BASOPHIL” value [1] was 0 CELLS/uL, the “ABSOLUTE EOSINOPHIL” value [1] was 0 CELLS/uL and the “ABSOLUTE LYMPHOCYTE” value [1] was 12191.17 CELLS/uL. The “ABSOLUTE MONOCYTE” value [1] was 183.17 CELLS/uL, the “ABSOLUTE SEGMENTED NEUTROPHIL” value [1] was 1192.33 CELLS/uL and the BASOPHIL [1] was 0%. For the same molecule, the EOSINOPHIL [1] was 0%, the “ERYTHROCYTE COUNT” value [1] was 5.51 x10E6/uL and the HEMATOCRIT [1] was 35.45%. The HEMOGLOBIN [1] was 13.82 G/DL, the “LEUKOCYTE COUNT” value [1] was 13.57 x10E3/uL and the LYMPHOCYTE [1] was 89.83%. For the same molecule, the “MEAN CORPUSCULAR HEMOGLOBIN” value [1] was 25.1 pg, the “MEAN CORPUSCULAR HEMOGLOBIN CONCENTRATION” value [1] was 38.98 G/DL and the “MEAN CORPUSCULAR VOLUME” value [1] was 64.42 fL. For the same molecule, the MONOCYTE [1] was 1.33%, the NEUTROPHIL [1] was 8.83% and the “NUCLEATED RED BLOOD CELLS” value [1] was 0 /100WBC. For the same molecule, the “PLATELET COUNT” value [1] was 1118.17 x10E3/uL, the “ALANINE AMINOTRANSFERASE” value [1] was 55 u/L and the ALBUMIN [1] was 4.15 G/DL. For the same molecule, the “ALKALINE PHOSPHATASE” value [1] was 449.5 u/L, the “ASPARTATE AMINOTRANSFERASE” value [1] was 112.83 u/L and the “BLOOD UREA NITROGEN” value [1] was 17.33 mg/dL. The “CARBON DIOXIDE” value [1] was 29.5 mmol/L, the CHLORIDE [1] was 101 MEQ/L and the CHOLESTEROL [1] was 70 mg/dL. The “CREATINE PHOSPHOKINASE” value [1] was 1325.83 u/L, the CREATININE [1] was 0.18 mg/dL and the GLUCOSE [1] was 171.5 mg/dL. For the same molecule, the “LACTATE DEHYDROGENASE” value [1] was 386 u/L, the LIPASE [1] was 10 u/L and the PHOSPHORUS [1] was 11.57 mg/dL. For the same molecule, the POTASSIUM [1] was 6.21 MEQ/L, the SODIUM [1] was 141.65 MEQ/L and the “TOTAL BILIRUBIN” value [1] was 0.15 mg/dL. For the same molecule, the “TOTAL PROTEIN” value [1] was 5.75 G/DL, the “URIC ACID” value [1] was 1.28 mg/dL and the “ABSOLUTE BASOPHIL” value [2] was 0 CELLS/uL. For the same molecule, the “ABSOLUTE EOSINOPHIL” value [2] was 138.17 CELLS/uL, the “ABSOLUTE LYMPHOCYTE” value [2] was 13283.17 CELLS/uL and the “ABSOLUTE MONOCYTE” value [2] was 303.83 CELLS/uL. The “ABSOLUTE SEGMENTED NEUTROPHIL” value [2] was 1308.17 CELLS/uL, the BASOPHIL [2] was 0% and the EOSINOPHIL [2] was 1%. The “ERYTHROCYTE COUNT” value [2] was 5.32 x10E6/uL, the HEMATOCRIT [2] was 33.8% and the HEMOGLOBIN [2] was 13.63 G/DL. For the same molecule, the “LEUKOCYTE COUNT” value [2] was 15.03 x10E3/uL, the LYMPHOCYTE [2] was 88.33% and the “MEAN CORPUSCULAR HEMOGLOBIN” value [2] was 25.68 pg. For the same molecule, the “MEAN CORPUSCULAR HEMOGLOBIN CONCENTRATION” value [2] was 40.35 G/DL, the “MEAN CORPUSCULAR VOLUME” value [2] was 63.67 fL and the MONOCYTE [2] was 1.83%. For the same molecule, the NEUTROPHIL [2] was 8.83%, the “NUCLEATED RED BLOOD CELLS” value [2] was 0 /100WBC and the “PLATELET COUNT” value [2] was 1097.5 x10E3/uL. The “ALANINE AMINOTRANSFERASE” value [2] was 54.5 u/L, the ALBUMIN [2] was 4.27 G/DL and the “ALKALINE PHOSPHATASE” value [2] was 337 u/L. The “ASPARTATE AMINOTRANSFERASE” value [2] was 94.67 u/L, the “BLOOD UREA NITROGEN” value [2] was 17 mg/dL and the “CARBON DIOXIDE” value [2] was 28.33 mmol/L. For the same molecule, the CHLORIDE [2] was 101.5 MEQ/L, the CHOLESTEROL [2] was 71.33 mg/dL and the “CREATINE PHOSPHOKINASE” value [2] was 628.17 u/L. For the same molecule, the CREATININE [2] was 0.19 mg/dL, the GLUCOSE [2] was 177.83 mg/dL and the “LACTATE DEHYDROGENASE” value [2] was 500.5 u/L. For the same molecule, the LIPASE [2] was 9.5 u/L, the PHOSPHORUS [2] was 12.3 mg/dL and the POTASSIUM [2] was 5.63 MEQ/L. For the same molecule, the SODIUM [2] was 143.03 MEQ/L, the “TOTAL BILIRUBIN” value [2] was 0.2 mg/dL and the “TOTAL PROTEIN” value [2] was 6.02 G/DL. For the same molecule, the “URIC ACID” value [2] was 1.5 mg/dL, the “ABSOLUTE BASOPHIL” value [3] was 0 CELLS/uL and the “ABSOLUTE EOSINOPHIL” value [3] was 128.33 CELLS/uL. The “ABSOLUTE LYMPHOCYTE” value [3] was 12992 CELLS/uL, the “ABSOLUTE MONOCYTE” value [3] was 35 CELLS/uL and the “ABSOLUTE SEGMENTED NEUTROPHIL” value [3] was 1711.33 CELLS/uL. For the same molecule, the BASOPHIL [3] was 0%, the EOSINOPHIL [3] was 1% and the “ERYTHROCYTE COUNT” value [3] was 5.2 x10E6/uL. For the same molecule, the HEMATOCRIT [3] was 33.43%, the HEMOGLOBIN [3] was 13.5 G/DL and the “LEUKOCYTE COUNT” value [3] was 14.87 x10E3/uL. The LYMPHOCYTE [3] was 87%, the “MEAN CORPUSCULAR HEMOGLOBIN” value [3] was 26.03 pg and the “MEAN CORPUSCULAR HEMOGLOBIN CONCENTRATION” value [3] was 40.4 G/DL. The “MEAN CORPUSCULAR VOLUME” value [3] was 64.33 fL, the MONOCYTE [3] was 0.33% and the NEUTROPHIL [3] was 11.67%. For the same molecule, the “NUCLEATED RED BLOOD CELLS” value [3] was 0 /100WBC, the “PLATELET COUNT” value [3] was 1286.33 x10E3/uL and the “ALANINE AMINOTRANSFERASE” value [3] was 61.67 u/L. For the same molecule, the ALBUMIN [3] was 4.23 G/DL, the “ALKALINE PHOSPHATASE” value [3] was 355.67 u/L and the “ASPARTATE AMINOTRANSFERASE” value [3] was 97.67 u/L. For the same molecule, the “BLOOD UREA NITROGEN” value [3] was 16.33 mg/dL, the “CARBON DIOXIDE” value [3] was 24 mmol/L and the CHLORIDE [3] was 103.67 MEQ/L. For the same molecule, the CHOLESTEROL [3] was 81.33 mg/dL, the “CREATINE PHOSPHOKINASE” value [3] was 1168 u/L and the CREATININE [3] was 0.16 mg/dL. The GLUCOSE [3] was 150.33 mg/dL, the “LACTATE DEHYDROGENASE” value [3] was 169.33 u/L and the LIPASE [3] was 10 u/L. It also gave a PHOSPHORUS [3] of 12.27 mg/dL, a POTASSIUM [3] of 5.69 MEQ/L and an SODIUM [3] of 144.2 MEQ/L. The “TOTAL BILIRUBIN” value [3] was 0.13 mg/dL, the “TOTAL PROTEIN” value [3] was 5.83 G/DL and the “URIC ACID” value [3] was 1.53 mg/dL.
